# Patent publication US20090181963A1, “3H-[1,2,3]TRIAZOLO[4,5-D]PYRIMIDINE COMPOUNDS, THEIR USE AS mTOR KINASE AND PI3 KINASE INHIBITORS, AND THEIR [sequence]” (Wyeth, priority 2008, published 2009)
# Columns and labels:
# PI3 Kinase γ = PI3 Kinase γ (Homo sapiens, UniProt P48736); assay: Fluorescence polarization assay for PI3K (PI3 Kinase γ); assay type: biochemical; conditions: diC8-PI(4,5)P2 substrate, 25 μM ATP, one hour at 25° C.
# Protocol: Nunc 384 well black polypropylene fluorescent plates were used for PI3K assays. Reactions were quenched by the addition of EDTA to a final concentration of 10 μM. Final reaction volumes were 10 ml. […] Reactions were allowed to proceed for one hour at 25° C. After I hour, GST-tagged GRP1 (general receptor for phosphoinositides) PH domain fusion protein was added to a final concentration of 100 nM, and BODIPY-TMRI(1,3,4,5)P4 (Echelon) was also added to a final concentration of 5 nM. Final sample volumes were 25 μl with a final DMSO concentration of 0.8%. Assay Plates were read on PerkinElmer Envision plate readers with appropriate filters for Tamra [BODIPY-TMRI(1,3,4,5)P4]. Data obtained were used to calculate enzymatic activity and enzyme inhibition by inhibitor compounds.
# PI3 Kinase α = PI3 Kinase α (Homo sapiens, UniProt P42336); assay: Fluorescence polarization assay for PI3K (PI3 Kinase α); assay type: biochemical; conditions: diC8-PI(4,5)P2 substrate, 25 μM ATP, one hour at 25° C.
# PI3 Kinase α, sequence (P42336 whole entry): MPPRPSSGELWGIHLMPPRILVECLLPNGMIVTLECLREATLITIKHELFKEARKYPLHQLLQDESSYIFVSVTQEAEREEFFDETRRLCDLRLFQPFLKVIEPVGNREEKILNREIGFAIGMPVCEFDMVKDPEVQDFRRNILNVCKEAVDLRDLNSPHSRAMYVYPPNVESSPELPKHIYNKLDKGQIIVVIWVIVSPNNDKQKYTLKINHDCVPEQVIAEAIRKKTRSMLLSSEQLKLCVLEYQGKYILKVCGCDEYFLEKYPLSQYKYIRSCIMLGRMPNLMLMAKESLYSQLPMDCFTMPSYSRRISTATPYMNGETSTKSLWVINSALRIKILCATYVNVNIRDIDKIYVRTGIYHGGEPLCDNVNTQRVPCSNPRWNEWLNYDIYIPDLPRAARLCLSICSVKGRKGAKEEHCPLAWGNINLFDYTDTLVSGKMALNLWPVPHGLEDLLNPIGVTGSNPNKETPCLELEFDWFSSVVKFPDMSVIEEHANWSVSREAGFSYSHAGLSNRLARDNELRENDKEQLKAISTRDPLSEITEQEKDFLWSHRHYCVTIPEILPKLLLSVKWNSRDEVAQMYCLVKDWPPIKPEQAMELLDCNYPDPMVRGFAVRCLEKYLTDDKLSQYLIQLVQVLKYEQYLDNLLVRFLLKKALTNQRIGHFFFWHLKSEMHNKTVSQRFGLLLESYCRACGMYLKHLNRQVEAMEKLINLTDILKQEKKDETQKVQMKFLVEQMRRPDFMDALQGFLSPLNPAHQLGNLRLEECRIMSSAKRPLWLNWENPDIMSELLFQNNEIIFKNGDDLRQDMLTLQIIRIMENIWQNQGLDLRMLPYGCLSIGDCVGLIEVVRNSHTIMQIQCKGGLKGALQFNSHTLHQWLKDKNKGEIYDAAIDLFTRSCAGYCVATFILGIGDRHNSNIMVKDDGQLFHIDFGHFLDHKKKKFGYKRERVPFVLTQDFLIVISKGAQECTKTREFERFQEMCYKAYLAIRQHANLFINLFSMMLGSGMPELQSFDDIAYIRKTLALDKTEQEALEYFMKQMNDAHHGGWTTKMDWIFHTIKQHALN
# PI3 Kinase α, sequence (P27986 whole entry partner): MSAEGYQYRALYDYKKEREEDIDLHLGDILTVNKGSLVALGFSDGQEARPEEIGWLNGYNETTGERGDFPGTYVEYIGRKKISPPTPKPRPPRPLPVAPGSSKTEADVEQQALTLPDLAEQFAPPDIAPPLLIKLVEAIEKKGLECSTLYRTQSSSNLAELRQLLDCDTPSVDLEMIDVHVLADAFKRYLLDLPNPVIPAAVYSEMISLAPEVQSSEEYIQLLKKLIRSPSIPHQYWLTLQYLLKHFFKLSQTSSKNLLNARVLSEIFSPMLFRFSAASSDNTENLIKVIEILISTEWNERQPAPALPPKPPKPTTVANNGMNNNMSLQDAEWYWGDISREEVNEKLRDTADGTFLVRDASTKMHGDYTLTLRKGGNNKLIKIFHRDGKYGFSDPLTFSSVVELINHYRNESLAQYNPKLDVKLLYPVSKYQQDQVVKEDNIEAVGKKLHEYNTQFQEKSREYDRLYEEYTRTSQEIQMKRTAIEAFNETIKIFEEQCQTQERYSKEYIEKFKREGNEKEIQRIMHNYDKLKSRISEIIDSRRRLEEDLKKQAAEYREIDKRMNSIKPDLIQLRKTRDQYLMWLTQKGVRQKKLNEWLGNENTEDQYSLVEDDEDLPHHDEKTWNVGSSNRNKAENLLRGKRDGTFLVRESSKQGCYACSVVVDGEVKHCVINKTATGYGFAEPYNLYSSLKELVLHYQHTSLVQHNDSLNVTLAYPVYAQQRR
# PI3 Kinase γ, sequence (P48736 whole entry): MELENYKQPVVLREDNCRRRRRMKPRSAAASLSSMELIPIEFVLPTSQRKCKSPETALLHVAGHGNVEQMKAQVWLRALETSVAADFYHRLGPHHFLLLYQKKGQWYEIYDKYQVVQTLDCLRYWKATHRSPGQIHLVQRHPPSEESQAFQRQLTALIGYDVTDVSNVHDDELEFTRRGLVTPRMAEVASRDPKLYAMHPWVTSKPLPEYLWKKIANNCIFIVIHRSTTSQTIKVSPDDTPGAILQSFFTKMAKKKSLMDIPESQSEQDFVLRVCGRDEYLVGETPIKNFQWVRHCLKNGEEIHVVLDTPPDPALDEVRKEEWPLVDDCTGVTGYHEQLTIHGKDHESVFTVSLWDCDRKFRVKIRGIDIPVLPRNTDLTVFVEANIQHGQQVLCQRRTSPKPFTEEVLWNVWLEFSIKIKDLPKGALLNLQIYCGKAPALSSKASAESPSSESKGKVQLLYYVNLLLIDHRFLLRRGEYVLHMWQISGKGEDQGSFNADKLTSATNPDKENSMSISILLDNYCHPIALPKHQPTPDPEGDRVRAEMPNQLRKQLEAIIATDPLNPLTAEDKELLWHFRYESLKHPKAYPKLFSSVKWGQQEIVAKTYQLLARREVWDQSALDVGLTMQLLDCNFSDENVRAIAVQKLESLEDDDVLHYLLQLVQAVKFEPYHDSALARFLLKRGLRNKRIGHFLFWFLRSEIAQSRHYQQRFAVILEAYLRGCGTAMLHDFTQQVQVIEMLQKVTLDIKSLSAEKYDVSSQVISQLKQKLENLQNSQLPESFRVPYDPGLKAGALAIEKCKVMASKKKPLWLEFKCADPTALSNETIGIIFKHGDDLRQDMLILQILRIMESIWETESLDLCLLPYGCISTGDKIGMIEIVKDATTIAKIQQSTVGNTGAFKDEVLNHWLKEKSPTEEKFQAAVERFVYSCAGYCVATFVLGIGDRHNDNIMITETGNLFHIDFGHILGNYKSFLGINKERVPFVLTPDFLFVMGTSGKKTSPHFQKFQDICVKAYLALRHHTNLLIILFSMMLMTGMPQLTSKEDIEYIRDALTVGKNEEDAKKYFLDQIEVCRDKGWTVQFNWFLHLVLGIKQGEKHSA
IC50 (PI3 Kinase γ) [µM],IC50 (PI3 Kinase α) [µM],Structure (SMILES)
0.007,< 0.0017,"CCn1nnc2c(N3CCOCC3)nc(-c3ccc(NC(=O)Nc4ccc(C(=O)N5CCNC(C)(C)C5)cc4)cc3)nc21 [Example 57, 1-{4-[(3,3-dimethylpiperazin-1-yl)carbonyl]phenyl}-3-[4-(3-ethyl-7-morpholin-4-yl-3H-[1,2,3]triazolo[4,5-d]pyrimidin-5-yl)phenyl]urea]"
0.165,0.034,"CC(C)(C)OC(=O)N1CC(n2nnc3c(N4CCOCC4)nc(-c4ccc(NC(=O)Nc5cccnc5)cc4)nc32)C1 [Example 130, tert-butyl 3-(7-morpholin-4-yl-5-{4-[(pyridin-3-ylcarbamoyl)amino]phenyl}-3H-[1,2,3]triazolo[4,5-d]pyrimidin-3-yl)azetidine-1-carboxylate]"
0.219,0.086,"Cn1cncc1CN1CCC(n2nnc3c(N4CCOCC4)nc(-c4cncc(O)c4)nc32)CC1 [Example 24, 5-(3-{1-[(1-methyl-1H-imidazol-5-yl)methyl]piperidin-4-yl}-7-morpholin-4-yl-3H-[1,2,3]triazolo[4,5-d]pyrimidin-5-yl)pyridin-3-ol]"
0.108,0.016,"Cc1cc(CN2CCC(n3nnc4c(N5CCOCC5)nc(-c5cncc(O)c5)nc43)CC2)sc1C [Example 26, 5-(3-{1-[(4,5-dimethyl-2-thienyl)methyl]piperidin-4-yl}-7-morpholin-4-yl-3H-[1,2,3]triazolo[4,5-d]pyrimidin-5-yl)pyridin-3-ol]"
2.72,0.501,"CC(C)(C)OC(=O)Cn1nnc2c(N3CCOCC3)nc(-c3cccc(O)c3)nc21 [Example 233, tert-butyl [5-(3-hydroxyphenyl)-7-morpholin-4-yl-3H-[1,2,3]triazolo[4,5-d]pyrimidin-3-yl]acetate]"
0.645,0.149,"CCN1CCCC1CNC(=O)Nc1ccc(-c2nc(N3CCOCC3)c3nnn(C(C)C)c3n2)cc1 (stereo not drawn) [Example 92, 1-(1-ethyl-pyrrolidin-2-ylmethyl)-3-[4-(3-isopropyl-7-morpholin-4-yl-3H-[1,2,3]triazolo[4,5-d]pyrimidin-5-yl)-phenyl]-urea]"
0.197,0.0775,"CC(C)n1nnc2c(N3CCOCC3)nc(-c3ccc(NC(=O)NCCN(C)C)cc3)nc21 [Example 88, 1-[2-(dimethylamino)ethyl]-3-[4-(3-isopropyl-7-morpholin-4-yl-3H-[1,2,3]triazolo[4,5-d]pyrimidin-5-yl)phenyl]urea]"
0.022,0.0047,"O=C(Nc1ccccc1)Nc1ccc(-c2nc(N3CCOCC3)c3nnn(CCO)c3n2)cc1 [Example 186, 1-{4-[3-(2-hydroxyethyl)-7-morpholin-4-yl-3H-[1,2,3]triazolo[4,5-d]pyrimidin-5-yl]phenyl}-3-phenylurea]"
3.15,1.66,"CCC(=O)N1CCN(CCn2nnc3c(N4CCOCC4)nc(-c4cccc(O)c4)nc32)CC1 [Example 100, 3-{7-morpholin-4-yl-3-[2-(4-propionylpiperazin-1-yl)ethyl]-3H-[1,2,3]triazolo[4,5-d]pyrimidin-5-yl}phenol]"
0.842,0.509,"O=C(O)c1ccc(Cn2nnc3c(N4CCOCC4)nc(-c4cccc(O)c4)nc32)cc1 [Example 242, 4-{[5-(3-hydroxyphenyl)-7-morpholin-4-yl-3H-[1,2,3]triazolo[4,5-d]pyrimidin-3-yl]methyl}benzoic acid]"
0.02,0.004,"O=C(Nc1ccc(-c2nc(N3CCOCC3)c3nnn(CC(F)(F)F)c3n2)cc1)Nc1ccsc1 [Example 142, 1-{4-[7-morpholin-4-yl-3-(2,2,2-trifluoroethyl)-3H-[1,2,3]triazolo[4,5-d]pyrimidin-5-yl]phenyl}-3-(3-thienyl)urea]"
0.018,0.001,"CCn1nnc2c(N3CCOCC3)nc(-c3ccc(NC(=O)Nc4ccc(C(=O)NCCN(C)C)cc4)cc3)nc21 [Example 43, N-[2-(dimethylamino)ethyl]-4-({[4-(3-ethyl-7-morpholin-4-yl-3H-[1,2,3]triazolo[4,5-d]pyrimidin-5-yl)phenyl]carbamoyl}amino)benzamide]"
0.108,0.013,"CN(C)CCNC(=O)Nc1ccc(-c2nc(N3CCOCC3)c3nnn(C4CCN(Cc5ccc(-c6ccncc6)cc5)CC4)c3n2)cc1 [Example 160, 1-(2-(dimethylamino)ethyl)-3-(4-(7-morpholino-3-(1-(4-(pyridin-4-yl)benzyl)piperidin-4-yl)-3H-[1,2,3]triazolo[4,5-d]pyrimidin-5-yl)phenyl)urea]"
2.49,1.04,"CCCCN1CCN(CCn2nnc3c(N4CCOCC4)nc(-c4cccc(O)c4)nc32)CC1 [Example 107, 3-{3-[2-(4-butylpiperazin-1-yl)ethyl]-7-morpholin-4-yl-3H-[1,2,3]triazolo[4,5-d]pyrimidin-5-yl}phenol]"
0.028,0.008,"O=C(Nc1ccccc1)Nc1ccc(-c2nc(N3CCOCC3)c3nnn(CC4CNC4)c3n2)cc1 [Example 189, 1-{4-[3-(azetidin-3-ylmethyl)-7-morpholin-4-yl-3H-[1,2,3]triazolo[4,5-d]pyrimidin-5-yl]phenyl}-3-phenylurea]"
1.5,0.318,"CN(CCNC(=O)Nc1ccc(-c2nc(N3CCOCC3)c3nnn(CC(F)(F)F)c3n2)cc1)C(=O)OC(C)(C)C [Example 139, tert-butyl methyl{2-[({4-[7-morpholin-4-yl-3-(2,2,2-trifluoroethyl)-3H-[1,2,3]triazolo[4,5-d]pyrimidin-5-yl]phenyl}carbamoyl)amino]ethyl}carbamate]"
0.009,< 0.0027,"CCn1nnc2c(N3CCOCC3)nc(-c3ccc(NC(=O)Nc4ccc(C(=O)NCCCN(C)C)cc4)cc3)nc21 [Example 47, N-[3-(dimethylamino)propyl]-4-({[4-(3-ethyl-7-morpholin-4-yl-3H-[1,2,3]triazolo[4,5-d]pyrimidin-5-yl)phenyl]carbamoyl}amino)benzamide]"
0.435,0.0835,"OCc1cccc(-c2nc(N3CCOCC3)c3nnn(C4CCN(Cc5ccccc5)CC4)c3n2)c1 [Example 177, {3-[3-(1-benzylpiperidin-4-yl)-7-morpholin-4-yl-3H-[1,2,3]triazolo[4,5-d]pyrimidin-5-yl]phenyl}methanol]"
5.21,0.689,"Oc1cccc(-c2nc(N3CCOCC3)c3nnn(CCN4CCCCC4)c3n2)c1 [Example 195, 3-[7-Morpholin-4-yl-3-(2-piperidin-1-ylethyl)-3H-[1,2,3]triazolo[4,5-d]pyrimidin-5-yl]phenol]"
0.168,0.08,"Oc1cncc(-c2nc(N3CCOCC3)c3nnn(C4CCNCC4)c3n2)c1 [Example 12, 5-(7-morpholin-4-yl-3-piperidin-4-yl-3H-[1,2,3]triazolo[4,5-d]pyrimidin-5-yl)pyridin-3-ol]"
1.18,0.303,"O=C(NC1CC1)c1ccc(Cn2nnc3c(N4CCOCC4)nc(-c4cccc(O)c4)nc32)cc1 [Example 221, N-cyclopropyl-4-{[5-(3-hydroxyphenyl)-7-morpholin-4-yl-3H-[1,2,3]triazolo[4,5-d]pyrimidin-3-yl]methyl}benzamide]"
0.618,0.1,"CNCCCCn1nnc2c(N3CCOCC3)nc(-c3cccc(O)c3)nc21 [Example 203, 3-{3-[4-(Methylamino)butyl]-7-morpholin-4-yl-3H-[1,2,3]triazolo[4,5-d]pyrimidin-5-yl}phenol]"
0.03,0.0095,"O=C(Nc1ccc(-c2nc(N3CCOCC3)c3nnn(CC(F)(F)F)c3n2)cc1)Nc1cccnc1 [Example 135, 1-{4-[7-morpholin-4-yl-3-(2,2,2-trifluoroethyl)-3H-[1,2,3]triazolo[4,5-d]pyrimidin-5-yl]phenyl}-3-pyridin-3-ylurea]"
0.409,0.0415,"CNC(=O)Nc1ccc(-c2nc(N3CCOCC3)c3nnn(C(C)C)c3n2)cc1 [Example 91, 1-[4-(3-isopropyl-7-morpholin-4-yl-3H-[1,2,3]triazolo[4,5-d]pyrimidin-5-yl)-phenyl]-3-methyl-urea]"
0.342,0.142,"COC(Cn1nnc2c(N3CCOCC3)nc(-c3ccc(NC(=O)Nc4ccc(C)cc4)cc3)nc21)OC [Example 179, 1-{4-[3-(2,2-dimethoxyethyl)-7-morpholin-4-yl-3H-[1,2,3]triazolo[4,5-d]pyrimidin-5-yl]phenyl}-3-(4-methylphenyl)urea]"
2.53,0.385,"CCCCN1CCC(n2nnc3c(N4CCOCC4)nc(-c4cncc(O)c4)nc32)CC1 [Example 27, 5-[3-(1-butylpiperidin-4-yl)-7-morpholin-4-yl-3H-[1,2,3]triazolo[4,5-d]pyrimidin-5-yl]pyridin-3-ol]"
0.03,0.0045,"CCn1nnc2c(N3CCOCC3)nc(-c3ccc(NC(=O)Nc4ccc(C(=O)NCCc5ccccn5)cc4)cc3)nc21 [Example 63, 4-({[4-(3-ethyl-7-morpholin-4-yl-3H-[1,2,3]triazolo[4,5-d]pyrimidin-5-yl)phenyl]carbamoyl}amino)-N-(2-pyridin-2-ylethyl)benzamide]"
0.144,0.061,"CN(C)CCNC(=O)Nc1ccc(-c2nc(N3CCOCC3)c3nnn(C4CCN(Cc5ccc(F)nc5)CC4)c3n2)cc1 [Example 157, 1-(2-(dimethylamino)ethyl)-3-(4-(3-(1-((6-fluoropyridin-3-yl)methyl)piperidin-4-yl)-7-morpholino-3H-[1,2,3]triazolo[4,5-d]pyrimidin-5-yl)phenyl)urea]"
4.63,1.03,"CC(C)n1nnc2c(N3CCOCC3)nc(-c3ccc(N)cc3)nc21 [Example 81, 4-(3-isopropyl-7-morpholin-4-yl-3H-[1,2,3]triazolo[4,5-d]pyrimidin-5-yl)-phenylamine]"
0.0885,0.008,"CCn1nnc2c(N3CCOC[C@@H]3C)nc(-c3ccc(NC(=O)Nc4cccnc4)cc3)nc21 [Example 72, (S)-1-(4-(3-ethyl-7-(3-methylmorpholino)-3H-[1,2,3]triazolo[4,5-d]pyrimidin-5-yl)phenyl)-3-(pyridin-3-yl)urea]"
